From paper PMC7585637 (Biomolecules & Therapeutics, 2020)

Target: T1, SIRT1 (Homo sapiens, UniProt Q96EB6)
T1 sequence (Q96EB6 2-747): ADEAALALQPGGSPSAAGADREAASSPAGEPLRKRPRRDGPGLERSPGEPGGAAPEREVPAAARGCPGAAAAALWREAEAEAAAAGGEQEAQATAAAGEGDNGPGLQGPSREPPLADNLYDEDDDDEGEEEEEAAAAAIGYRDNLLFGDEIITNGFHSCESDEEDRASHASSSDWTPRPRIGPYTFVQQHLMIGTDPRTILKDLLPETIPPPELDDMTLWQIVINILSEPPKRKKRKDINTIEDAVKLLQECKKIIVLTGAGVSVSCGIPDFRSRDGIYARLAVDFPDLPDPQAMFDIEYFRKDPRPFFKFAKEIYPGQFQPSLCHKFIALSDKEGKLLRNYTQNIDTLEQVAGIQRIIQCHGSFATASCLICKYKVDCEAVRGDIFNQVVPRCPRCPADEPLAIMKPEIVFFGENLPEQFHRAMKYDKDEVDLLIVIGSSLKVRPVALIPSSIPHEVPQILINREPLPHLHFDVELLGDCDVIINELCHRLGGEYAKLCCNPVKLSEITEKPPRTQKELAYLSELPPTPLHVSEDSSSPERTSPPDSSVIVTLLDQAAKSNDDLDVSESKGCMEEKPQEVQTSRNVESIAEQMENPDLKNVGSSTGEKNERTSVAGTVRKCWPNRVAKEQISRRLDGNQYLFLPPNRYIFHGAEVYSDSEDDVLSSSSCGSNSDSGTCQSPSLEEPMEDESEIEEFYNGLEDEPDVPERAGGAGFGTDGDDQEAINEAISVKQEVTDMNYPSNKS
Test: Fluor-de-Lys SIRT1 fluorometric deacetylase assay
Assay type: biochemical

**Q.** Which IC50 does the source give for `CC(C)(C)c1cc(C=C2C(=O)NC(=S)NC2=O)cc(C(C)(C)C)c1O` [MHY2256, 5-(3,5-Di-tert-butyl-4-hydroxybenzylidene)-2-thioxodihydropyrimidine-4,6(1H,5H)-dione] here?
**A.** 1.02 µM
